“Also recorded” adds a separate entry of the source. Where two headings read alike, the source gives them in different places.
Assays:
[1] = Planta Med. 31, 214-220 (1977); cited from earlier work
[2] = test system: lipid peroxidation in the mitochondria of rat liver; conditions: Arch. Pharm. Res. 7, 63-64, 1984; cited from earlier work
[3] = Comparison of synthetic substances with full extract; conditions: synthetically prepared substance
plasmalipid = conditions: spontaneously hypertensive rats; Fette-Seifen-Anstrichmittel 87, 74-76 (1985); cited from earlier work
[4] = test system: fat pads isolated from rats; assay: Glucose oxidation: formation of 14CO2 in fat pads isolated from rats; format: in vivo
Description: Insulin-dependent diabetes mellitus is frequently accompanied by insulin resistance. Frequently an impaired insulin action is also observed with streptozotocin induced diabetic rats. Such an insulin resistance is particularly also attributed to postreceptor defects.
(§1) With (a) untreated (normal) control animals (rats), (b) diabetic rats, and (c) diabetic brazilin treated rats glucose oxidation and lipogenesis were investigated (by means of the esterified lipids and the free fatty acids). Diabetes was induced by intravenous administration of streptozotocin (40 mg/kg live weight). Brazilin was administered intraperitoneally for 15 days (100 mg/kg body weight). Within the same period the same volume of saline solution was administered to the untreated animals of the control group.
For determining the effects of brazilin administration on the glucose oxidation, the method described by Winegard et al. (J. Biol. Chem. 233, 267 (1958)) was used, using ^14 C glucose (1-^14 C-glucose).

[5] = Increase of the peripheral insulin action in diabetic mice; format: in vivo
Experimental: Diabetic mice were divided into a control group and a test group. A dose of 100 mg of brazilin per kg body weight was daily administered to the animals of the test group; instead of brazilin, the same amount of saline solution was injected intraperitoneally to the animals of the control group.
After 30 test days, the body weight of the animals of the test group was higher and the blood sugar values of these animals were lower as compared to the diabetic animals of the control group.
On the 30th test day, the animals were made to fast for 5 h; thereupon, they were injected intravenously with 0.46 mU/g of NPH insulin. Then, the blood sugar values were measured at respective intervals of 5 min.

[6] = test system: thrombin stimulated platelets; assay: Malon dialdehyde (MDA) production by thrombin stimulated platelets; format: in vivo, rats
Description: Thromboxane A2 is the potent substance inducing platelet aggregation. MDA is formed through the same enzyme system as thromboxane A2. Inhibition of MDA production may be due to the following factors:
(§2) If an inhibiting action on MDA is detectable but no significant influence on the prostacyclin production can be detected, a selective inhibiting action on thromboxane A2 may be inferred.
(§3) Rats were divided into four test groups, viz.
(§4) Group B: Normal rats (8 laboratory animals) to which an aqueous brazilin solution (comprising 110 mg of brazilin per kg body weight) was daily administered from the 20th to the 30th day
(§5) Group D: Diabetic rats (10 laboratory animals); for inducing diabetes, a dose of 70 mg of streptozotocin per kg body weight in 0.1M citrate buffer solution (pH 4.0) was administered intraperitoneally to normal rats on the 1st test day. From the 20th to the 30th day of the test aqueous brazilin solution (comprising 110 mg of brazilin per kg body weight) was daily administered orally to these diabetic rats. (Instead of an aqueous brazilin solution, the same amount of distilled water was administered to the laboratory animals of the groups A and C from the 20th to the 30th day.)
(§6) After expiration of the 30th test day, the test animals were sacrificed, and the MDA production was determined by means of thrombin stimulated platelets.

[7] = Rev. Latinoam. Microbiol. 1, 225-232 (1958); cited from earlier work
[8] = test system: fat pads isolated from rats; assay: Lipogenesis: esterified lipids and free fatty acids in fat pads isolated from rats; format: in vivo
Experimental: as §1
The effects of additional brazilin administration on lipogenesis were determined by means of the esterified lipids and free fatty acids formed from 1-^14 C-glucose. The measurements were carried out according to established methods.

erythropoesis = assay: Effect on erythropoesis; design: species or system rats; conditions: rat, in vivo
Experimental: (§7) For administering brazilin, the laboratory animals were daily injected intraperitoneally with a dose of 100 mg of brazilin per kg body weight for 10 days. For inducing diabetes, a dose of 175 mg of alloxan per kg body weight was administered intraperitoneally.

prostacyclin production = assay: Prostacyclin production (6-keto PGF alpha); format: in vivo, rats
Experimental: as §2, §3, §4, §5, §6

[9] = test system: platelet aggregation in normal human plasma; assay: Platelet aggregation in normal human plasma induced by ADP; format: cell-based; conditions: for T/min, Aggregation (first value) / Tmax, Aggregation (first value): control 75.1; for activity at 1000 µM / inhibition at 1000 µM / activity at 100 µM / inhibition at 100 µM: Homo sapiens, Platelet; for activity at 1000 µM / activity at 100 µM: control 100
Experimental: The platelet aggregation was determined by a tubimetric method in a dual-channel aggregometer, assuming that a platelet-poor plasma represented 100% aggregation and that a platelet-rich plasma represented 0% aggregation. Each aggregometer tube was charged with 40 μl of platelet-rich plasma and 50 μl of test sample solution. The mixture was incubated at 37° C. for 2 min., whereupon 50 μl of ADP solution were added. Percent inhibition of the platelet aggregation caused by the test sample solution was calculated as follows: [formula]

blood viscosity = assay: Blood viscosity; format: in vivo, rats
Experimental: Increased blood viscosity and reduced erythrocyte deformability are typical pathological states of diabetic subjects. The effect of brazilin administration to diabetic laboratory animals (rats) on the blood viscosity and erythrocyte deformability of these animals was examined.
as §7
The blood viscosity was determined by means of heparinized blood samples relative to distilled water at 37°±0.5° C. The time interval required by 2 ml of liquid to pass between two points of a narrow glass capillary was determined.

[10] = diabetic rats + brazilin, insulin 25 ng/ml
[11] = diabetic mice, 100 mg/kg daily, 30 days

Oc1ccc2c(c1)OC[C@]1(O)Cc3cc(O)c(O)cc3[C@H]21 [brazilin]
anti-inflammatory effect [1]: anti-inflammatory effect
effect on lipid peroxidation in mitochondria of rat liver [2]: effect on the lipid peroxidation
effects compared with administration of major amounts of full extract [3]: substantially has the same effects
plasmalipid-reducing effect (plasmalipid): plasmalipid-reducing effect
restoration of initial CO2 production, basal ([4]; diabetic rats + brazilin): 74.6%
Glucose→CO2, basal ([4]; diabetic rats + brazilin 100 mg/kg i.p. 15 days, n=8, P < 0.01 vs. diabetic control, diabetic 109.1, normal 172.8): 156.6 ± 14.7 nmol/100 mg tissue/120 min
restoration of initial CO2 production, insulin stimulated [4, 10]: 14.5%
Glucose→CO2, insulin stimulated ([4]; insulin 25 ng/ml, diabetic rats + brazilin, n=8, P < 0.1 vs diabetic control, diabetic 236.6, normal 694.2): 303.1 ± 19.0 nmol/100 mg tissue/120 min
blood sugar after i.v. NPH insulin ([5]; brazilin treated diabetic mice, 0.46 mU/g NPH insulin, day 30, 5 h fasted (FIG. 5)): marked decrease of the blood sugar values
blood sugar values vs. diabetic control [5, 11]: lower
body weight vs. diabetic control [5, 11]: higher
MDA ([6]; Group B, thrombin 0,2 I. un., normal control 4.16): 0.58 ± 0.30 nmol/10 platelets
MDA ([6]; Group B, thrombin 1,0 I. un., normal control 2.46): 1.02 ± 0.48 nmol/10 platelets
MDA ([6]; Group D, thrombin 0,2 I. un., diabetic control 2.86): 0.76 ± 0.21 nmol/10 platelets
MDA ([6]; Group D, thrombin 1,0 I. un., diabetic control 3.38): 1.10 ± 0.31 nmol/10 platelets
MDA ([6]; normal rats + brazilin 110 mg/kg daily (Group B), thrombin 5,0 I. un., normal control 5.16): 2.20 ± 0.58 nmol/10 platelets
inhibition of MDA production ([6]; rats, 110 mg/kg daily): inhibiting effect on MDA production
antibacterial effect [7]: antibacterial effect
effect on the production of free fatty acids ([8]; basal and insulin stimulated): In none of the two cases additional administration of brazilin has any significant effect
restoration of initial production of esterified lipids, basal ([8]; diabetic rats + brazilin): 24.7%
restoration of initial production of esterified lipids, insulin stimulated [8, 10]: 19.8%
Glucose→FFA (free fatty acids), basal ([8]; diabetic rats + brazilin, n=6, not significant vs diabetic control, diabetic 2.60, normal 3.18): 1.83 ± 0.43 nmol/100 mg tissue/120 min
Glucose→E.L. (esterified lipids), basal ([8]; diabetic rats + brazilin, n=10, P < 0.01 vs. diabetic control, diabetic 78.8, normal 220.8): 113.9 ± 9.5 nmol/100 mg tissue/120 min
Glucose→FFA (free fatty acids), insulin stimulated ([8]; insulin 25 ng/ml, n=6, not significant vs diabetic control, diabetic 3.73, normal 8.42): 3.39 ± 0.76 nmol/100 mg tissue/120 min
Glucose→E.L. (esterified lipids), insulin stimulated ([8]; insulin 25 ng/ml, n=9, P < 0.1 vs diabetic control, diabetic 276.5, normal 528.0): 326.2 ± 18.4 nmol/100 mg tissue/120 min
effect on erythropoesis (erythropoesis): no effect on erythropoesis
6-Keto PG F α (prostacyclin production; diabetic rats + brazilin, diabetic control 0.19): 0.18 ± 0.03 ng/mg
6-Keto PG F α (prostacyclin production; normal rats + brazilin, normal control 0.18): 0.17 ± 0.02 ng/mg
influence on the prostacyclin production (prostacyclin production; rats): no influence on the prostacyclin production could be observed
T/min, Aggregation (first value) ([9]; 10^-3 M): 21.1%
Tmax, Aggregation (first value) ([9]; 10^-3 M): 31.5%
T/min, Aggregation (first value) ([9]; 10^-4 M): 34.8%
Tmax, Aggregation (first value) ([9]; 10^-4 M): 60.7%
activity at 1000 µM ([9]; 10^-3 M, read-out: T/min, Aggregation relative to control (second value)): 28.1%
activity at 1000 µM ([9]; 10^-3 M, read-out: Tmax, Aggregation relative to control (second value)): 41.8%
inhibition at 1000 µM ([9]; 10^-3 M, read-out: T/min, Inhibition): 71.9%
inhibition at 1000 µM ([9]; 10^-3 M, read-out: Tmax, Inhibition): 58.2%
activity at 100 µM ([9]; 10^-4 M, read-out: T/min, Aggregation relative to control (second value)): 46.4%
activity at 100 µM ([9]; 10^-4 M, read-out: Tmax, Aggregation relative to control (second value)): 80.1%
inhibition at 100 µM ([9]; 10^-4 M, read-out: T/min, Inhibition): 53.6%
inhibition at 100 µM ([9]; 10^-4 M, read-out: Tmax, Inhibition): 19.9%
Viscosity (blood viscosity; alloxan diabetic rats + brazilin, P < 0.05 vs. diabetic control (1.62)): 1.52 ± 0.07 cP
effect on blood viscosity of diabetic animals (blood viscosity; diabetic rats vs. control group): significant decrease of the blood viscosity; also recorded: significant decrease (P<0.05) of blood viscosity
effect on blood viscosity of normal animals (blood viscosity; normal + brazilin vs. normal): No statistical differences
Viscosity (blood viscosity; normal rats + brazilin 100 mg/kg i.p. 10 days, 37° C., normal 1.45): 1.40 ± 0.06 cP

From patent publication US4918099A, “Drug, preparation and use thereof” (priority 1985, dated 1990)
